# According to patent EP4574152A1, “POTASSIUM CHANNEL ACTIVATORS FOR USE IN THE TREATMENT OF EPILEPTIC DISORDERS” (Fraunhofer-Gesellschaft zur Förderung der angewandten …, priority 2023, dated 2025):
# Where two headings read alike, the source gives them in different places.
# Key:
# Kv7.3 A315T [1] = target: T1, Kv7.3 A315T (Homo sapiens, UniProt O43525, A315T); test: fluorescence-based thallium flux assay (FluxOR) in CHO cells stably transfected with Kv7.3 A315T; type: cell-based; details: for maximum activities: relative to retigabine
# T1 construct: expressed in transfected cells; host or cells: CHO, transient
# Description: The Fraunhofer repurposing library was initially screened in a cellular model represented by Chinese hamster ovary cells (CHO) stably transfected with a variant of the Kv7.3 channel (carrying the mutation A315T to enhance current size and increase the signal-to-noise ratio). The Kv7.3 A315T cell line was used in a fluorescence-based thallium flux assay (FluxOR, Thermofisher) optimized as a read-out for Kv7 channel function, using retigabine as a positive control.
# Compounds in the Fraunhofer repurposing library were tested in Kv7.3 A315T-expressing cells at 10 µM and their Kv7 opening effect was compared to that observed with 10 µM retigabine.
# Kv7.3 A315T [2] = target: T1, Kv7.3 A315T; test: whole-cell patch-clamp in CHO cells transiently transfected with Kv7.3 A315T cDNA; type: cell-based
# Protocol: (§1) JNJ-37822681 efficacy in opening Kv7 channels was further investigated through the whole-cell patch-clamp electrophysiological technique, the gold standard technique for investigating ion channels activity and pharmacological modulation.
# In order to better evaluate the quantitative differences occurring in Kv7-opening ability between retigabine, and JNJ-37822681, dose-response experiments (0.01-30 µM) were performed to calculate EC50s using the functional parameters of ΔV1/2 (Figure 1C).
# Kv7.2+Kv7.3 channels = target: T2, Kv7.2+Kv7.3 channels (Homo sapiens, UniProt O43525+O43526); test: whole-cell patch-clamp in CHO cells expressing Kv7.2+Kv7.3 channels; type: cell-based; details: calculated from dose-response curves, Kv7.2/7.3 currents
# T2 construct: expressed in transfected cells; host or cells: CHO
# Description: as §1
# [3] = target: T3, Kv7.2 channels carrying the W236L mutation (Homo sapiens, UniProt O43526, W236L); test: patch-clamp on homomeric Kv7.2 channels carrying the W236L mutation; type: cell-based; details: 10 µM
# T3 construct: expressed in transfected cells
# PTZ-induced seizures = PTZ-induced seizures in mice; type: in vivo, C57BL/6J mice; details: for ED50: Mus musculus, ip; for ED50 Values (mg/Kg) Clonus / ED50 Values (mg/Kg) Tonus: i.p.
# Protocol: (§2) JNJ-37822681 was tested in two animal models of acute seizures widely used for the evaluation of new ASMs: 1. a mouse model of generalized myoclonic seizures such as acute exposure to the GABAA receptor antagonist pentylenetetrazol (PTZ); 2. audiogenic seizures induced in genetically epilepsy-prone DBA/2 mice.
# (§3) In both animal models, retigabine or JNJ-37822681 were administered i.p, 30 minutes before seizures induction with PTZ or sounds.
# audiogenic seizures = audiogenic seizures in DBA/2 mice; type: in vivo; details: limits in brackets; for ED50: Mus musculus, ip; for ED50 Values (mg/Kg) Clonus / ED50 Values (mg/Kg) Tonus / ED50 Values (mg/Kg) Wild Running: i.p.
# Protocol: as §2, §3
# [4] = 30 minutes before seizures induction with PTZ, limits in brackets
# [5] = 30 minutes before seizures induction with sounds
compound,measurement,setting,value
"Fc1ccc(CN2CCC(Nc3ccc(C(F)(F)F)nn3)CC2)cc1F [JNJ-37822681, N-[1-[(3,4-difluorophenyl)methyl]-4-piperidinyl]-6-(trifluoromethyl)-3-pyridazinamine]",maximum activities,Kv7.3 A315T [1]; FluxOR assay,83.8%
same,EC50,"Kv7.3 A315T [1]; FluxOR assay, ten-point dose-response curve from 0.5 nM to 10 µM, read-out: EC50",140 nM
same,EC50,"Kv7.3 A315T [2]; calculated from ΔV1/2, dose-response 0.01-30 µM, read-out: EC50",2000 ± 30 nM
same,maximal ΔV1/2,Kv7.3 A315T [2]; dose-response 0.01-30 µM,37.0±5.4 mV
same,leftward shift of the channel voltage-dependence of activation (ΔV1/2),Kv7.3 A315T [2]; perfusion with 1 µM,qualitatively similar effects
same,EC50,Kv7.2+Kv7.3 channels,1200 ± 300 nM
same,activation of Kv7.2 channels carrying the W236L mutation,[3],failed to activate
same,ED50,"PTZ-induced seizures; 30 minutes before seizures induction with PTZ, limits in brackets, read-out: ED50 Values (mg/Kg) Clonus",15 mg/kg
same,ED50,"PTZ-induced seizures; 30 minutes before seizures induction with PTZ, limits in brackets, read-out: ED50 Values (mg/Kg) Tonus",9 mg/kg
same,ED50 Values (mg/Kg) Clonus,PTZ-induced seizures; [4],15 (12-18) mg/Kg
same,ED50 Values (mg/Kg) Tonus,PTZ-induced seizures; [4],9 (6-13) mg/Kg
same,ED50,"audiogenic seizures; 30 minutes before seizures induction with sounds, read-out: ED50 Values (mg/Kg) Clonus",6 mg/kg
same,ED50,"audiogenic seizures; 30 minutes before seizures induction with sounds, read-out: ED50 Values (mg/Kg) Tonus",3 mg/kg
same,ED50,"audiogenic seizures; 30 minutes before seizures induction with sounds, read-out: ED50 Values (mg/Kg) Wild Running",11 mg/kg
same,ED50 Values (mg/Kg) Clonus,audiogenic seizures; [5],6 (5-9) mg/Kg
same,ED50 Values (mg/Kg) Tonus,audiogenic seizures; [5],3 (2-5) mg/Kg
same,ED50 Values (mg/Kg) Wild Running,audiogenic seizures; [5],11 (8-13) mg/Kg
"CCOC(=O)Nc1ccc(NCc2ccc(F)cc2)cc1N [retigabine, reference compound]",EC50,Kv7.3 A315T [1],300 nM
same,maximum activities,Kv7.3 A315T [1]; FluxOR assay,100%
same,EC50,Kv7.3 A315T [2],600 ± 100 nM
same,ED50,PTZ-induced seizures; read-out: ED50 Values (mg/Kg) Clonus,13 mg/kg
same,ED50,PTZ-induced seizures; read-out: ED50 Values (mg/Kg) Tonus,9 mg/kg
same,ED50 Values (mg/Kg) Clonus,PTZ-induced seizures; [4],13 (9.2-18.5) mg/Kg
same,ED50 Values (mg/Kg) Tonus,PTZ-induced seizures; [4],9 (7-12) mg/Kg
same,ED50,"audiogenic seizures; read-out: ED50 Values (mg/Kg) Clonus, i.p., 30 minutes before seizures induction with sounds",7 mg/kg
same,ED50,"audiogenic seizures; read-out: ED50 Values (mg/Kg) Tonus, i.p., 30 minutes before seizures induction with sounds",4.6 mg/kg
same,ED50,"audiogenic seizures; read-out: ED50 Values (mg/Kg) Wild Running, i.p., 30 minutes before seizures induction with sounds",12 mg/kg
same,ED50 Values (mg/Kg) Clonus,audiogenic seizures; [5],6.9 (4.3-11) mg/Kg
same,ED50 Values (mg/Kg) Tonus,audiogenic seizures; [5],4.6 (3.6-6) mg/Kg
same,ED50 Values (mg/Kg) Wild Running,audiogenic seizures; [5],12.4 (9-17.3) mg/Kg
